For one experiment, the system named is 8×TBD luciferase reporter (YAP) in HEK293T cells. In words: YAP Reporter Assay (8×TBD firefly luciferase reporter). It is filed as cell-based. To be noted: Homo sapiens, HEK-293T, 24 h, read-out: Firefly Luciferase IC50 (μM). The method in brief: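 Stably transfected HEK293T cells (8×TBD firefly luciferase plus TK-renilla) were dosed with 10-point 1:3 dilutions from 3 μM final, quadruplicates, for 24 h at 37 °C. Dual-Glo read firefly and renilla luminescence; IC50 and maximal inhibition reported separately for each.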
A general note: Reporter assays use an easily measured gene product as a stand-in for the process of interest.
By IC50 is commonly meant the concentration that gives 50% inhibition. As to `C[C@H](NC(=O)c1ccc2c(Oc3ccc(C(F)(F)F)cc3)cccc2c1)C1CN(CCO)C1` [Compound 128, (S)—N-(1-(1-(2-hydroxyethyl)azetidin-3-yl)ethyl)-5-(4-(trifluoromethyl)phenoxy)-2-naphthamide], the IC50 was in the range of 0.1 to 1 µM.

As to `C[C@@H](NC(=O)c1ccc2c(Oc3ccc(C(F)(F)F)cc3)cccc2c1)C1CN(CCO)C1` [Compound 135, (R)—N-(1-(1-(2-hydroxyethyl)azetidin-3-yl)ethyl)-5-(4-(trifluoromethyl)phenoxy)-2-naphthamide], the IC50 was 0.1 to 1 µM.

Staying with this experiment, now noted: Homo sapiens, HEK-293T; HEK293T cells stably transfected with 8×TBD luciferase reporter and pRLTK; 24-hr incubation; firefly luciferase activity; read-out: Firefly Luciferase IC50.
`NS(=O)(=O)c1ccc2c(Oc3ccc(C(F)(F)F)cc3)cccc2c1` [Compound 117, 5-(4-(trifluoromethyl)phenoxy)naphthalene-2-sulfonamide]: the IC50 is < 0.1 µM.

As for `COc1cc(Oc2ccc(C(F)(F)F)cc2)c2ncc(C(=O)NC(CO)c3ccccn3)cc2c1` (centres unmarked) [Compound 118, N-(2-Hydroxy-1-(pyridin-2-yl)ethyl)-6-methoxy-8-(4-(trifluoromethyl)phenoxy)quinoline-3-carboxamide], the IC50 was < 0.1 µM.

Take `O=C(N[C@H](CO)c1ccccn1)c1ccc2c(Oc3ccc(C(F)(F)F)cc3)cccc2c1` [Compound 119, (S)—N-(2-hydroxy-1-(pyridin-2-yl)ethyl)-5-(4-(trifluoromethyl)phenoxy)-2-naphthamide]: the IC50 is < 0.1 µM.

Regarding `O=C(N[C@@H](CO)c1ccccn1)c1ccc2c(Oc3ccc(C(F)(F)F)cc3)cccc2c1` [Compound 120, (R)—N-(2-hydroxy-1-(pyridin-2-yl)ethyl)-5-(4-(trifluoromethyl)phenoxy)-2-naphthamide], the half-inhibitory concentration (IC50) lay within 0.1 to 1 µM.

With `O=C(NC(CCO)CCO)c1ccc2c(Oc3ccc(C(F)(F)F)cc3)cccc2c1` [Compound 121, N-(1,5-dihydroxypentan-3-yl)-5-(4-(trifluoromethyl)phenoxy)-2-naphthamide], the IC50 is < 0.1 µM.

Consider `C[C@@H](NC(=O)c1ccc2c(Oc3ccc(C(F)(F)F)cc3)cccc2c1)C1CN(CCCCO)C1` [Compound 123, (R)—N-(1-(1-(4-hydroxybutyl)azetidin-3-yl)ethyl)-5-(4-(trifluoromethyl)phenoxy)-2-naphthamide], for which the IC50 was in the range of 0.1 to 1 µM.

`C[C@@H](NC(=O)c1ccc2c(Oc3ccc(C(F)(F)F)cc3)cccc2c1)C1CN(CCF)C1` [Compound 124, (R)—N-(1-(1-(2-fluoroethyl)azetidin-3-yl)ethyl)-5-(4-(trifluoromethyl)phenoxy)-2-naphthamide]: the IC50 is < 0.1 µM.

Regarding `C[C@@H](NC(=O)c1ccc2c(Oc3ccc(C(F)(F)F)cc3)cccc2c1)C1CN(CC(F)F)C1` [Compound 125, (R)—N-(1-(1-(2,2-difluoroethyl)azetidin-3-yl)ethyl)-5-(4-(trifluoromethyl)phenoxy)-2-naphthamide], the IC50 was < 0.1 µM.

As to `C[C@@H](NC(=O)c1ccc2c(Oc3ccc(C(F)(F)F)cc3)cccc2c1)C1CN(C)C1` [Compound 126, (R)—N-(1-(1-methylazetidin-3-yl)ethyl)-5-(4-(trifluoromethyl)phenoxy)-2-naphthamide], the IC50 lay within 0.1 to 1 µM.

`C[C@H](NC(=O)c1ccc2c(Oc3ccc(C(F)(F)F)cc3)cccc2c1)C1CN(C)C1` [Compound 127, (S)—N-(1-(1-methylazetidin-3-yl)ethyl)-5-(4-(trifluoromethyl)phenoxy)-2-naphthamide]: the IC50 was in the range of 1 to 3 µM.

`C[C@H](NC(=O)c1ccc2c(Oc3ccc(C(F)(F)F)cc3)cccc2c1)C1CN(CCF)C1` [Compound 129, (S)—N-(1-(1-(2-fluoroethyl)azetidin-3-yl)ethyl)-5-(4-(trifluoromethyl)phenoxy)-2-naphthamide]: the IC50 lay in the range of 1 to 3 µM.

`CCN1CC([C@H](C)NC(=O)c2ccc3c(Oc4ccc(C(F)(F)F)cc4)cccc3c2)C1` [Compound 130, (S)—N-(1-(1-ethylazetidin-3-yl)ethyl)-5-(4-(trifluoromethyl)phenoxy)-2-naphthamide]: the IC50 fell in the range of 0.1 to 1 µM.

As to `CCN1CC([C@@H](C)NC(=O)c2ccc3c(Oc4ccc(C(F)(F)F)cc4)cccc3c2)C1` [Compound 131, (R)—N-(1-(1-ethylazetidin-3-yl)ethyl)-5-(4-(trifluoromethyl)phenoxy)-2-naphthamide], the IC50 is 0.1 to 1 µM.

As for `CC(C)N1CC([C@H](C)NC(=O)c2ccc3c(Oc4ccc(C(F)(F)F)cc4)cccc3c2)C1` [Compound 132, (S)—N-(1-(1-isopropylazetidin-3-yl)ethyl)-5-(4-(trifluoromethyl)phenoxy)-2-naphthamide], the IC50 fell in the range of 0.1 to 1 µM.

`CC(C)N1CC([C@@H](C)NC(=O)c2ccc3c(Oc4ccc(C(F)(F)F)cc4)cccc3c2)C1` [Compound 133, (R)—N-(1-(1-isopropylazetidin-3-yl)ethyl)-5-(4-(trifluoromethyl)phenoxy)-2-naphthamide]: the IC50 lay in the range of 1 to 3 µM.

As to `C[C@H](NC(=O)c1ccc2c(Oc3ccc(C(F)(F)F)cc3)cccc2c1)C1CN(CC(F)F)C1` [Compound 134, (S)—N-(1-(1-(2,2-difluoroethyl)azetidin-3-yl)ethyl)-5-(4-(trifluoromethyl)phenoxy)-2-naphthamide], the IC50 lay in the range of 1 to 3 µM.

Consider `C[C@H](NC(=O)c1ccc2c(Oc3ccc(C(F)(F)F)cc3)cccc2c1)C1CN(C2CC2)C1` [Compound 136, (S)—N-(1-(1-cyclopropylazetidin-3-yl)ethyl)-5-(4-(trifluoromethyl)phenoxy)-2-naphthamide], for which the IC50 lay within 1 to 3 µM.

With `C[C@@H](NC(=O)c1ccc2c(Oc3ccc(C(F)(F)F)cc3)cccc2c1)C1CN(C2CC2)C1` [Compound 137, (R)—N-(1-(1-cyclopropylazetidin-3-yl)ethyl)-5-(4-(trifluoromethyl)phenoxy)-2-naphthamide], the IC50 was < 0.1 µM.

Consider `C[C@H](NC(=O)c1ccc2c(Oc3ccc(C(F)(F)F)cc3)cccc2c1)C1(O)CNC1` [Compound 138, (S)—N-(1-(3-hydroxyazetidin-3-yl)ethyl)-5-(4-(trifluoromethyl)phenoxy)-2-naphthamide], for which the IC50 lay within 0.1 to 1 µM.

For the compound `C[C@@H](NC(=O)c1ccc2c(Oc3ccc(C(F)(F)F)cc3)cccc2c1)C1(O)CNC1` [Compound 139, (R)—N-(1-(3-hydroxyazetidin-3-yl)ethyl)-5-(4-(trifluoromethyl)phenoxy)-2-naphthamide], the IC50 was < 0.1 µM.

For `O=C(N[C@@H](CO)C1CNC1)c1ccc2c(Oc3ccc(C(F)(F)F)cc3)cccc2c1` [Compound 140, (R)—N-(1-(azetidin-3-yl)-2-hydroxyethyl)-5-(4-(trifluoromethyl)phenoxy)-2-naphthamide], the IC50 lay within 1 to 3 µM.

For the compound `O=C(N[C@H](CO)C1CNC1)c1ccc2c(Oc3ccc(C(F)(F)F)cc3)cccc2c1` [Compound 142, (S)—N-(1-(azetidin-3-yl)-2-hydroxyethyl)-5-(4-(trifluoromethyl)phenoxy)-2-naphthamide], the IC50 was 0.1 to 1 µM.

As for `C[C@H](CCN(C)C)NC(=O)c1ccc2c(Oc3ccc(C(F)(F)F)cc3)cccc2c1` [Compound 144, (R)-N-(4-(dimethylamino)butan-2-yl)-5-(4-(trifluoromethyl)phenoxy)-2-naphthamide], the IC50 is < 0.1 µM.

As to `CNCC[C@@H](C)NC(=O)c1ccc2c(Oc3ccc(C(F)(F)F)cc3)cccc2c1` [Compound 145, (R)-N-(4-(methylamino)butan-2-yl)-5-(4-(trifluoromethyl)phenoxy)-2-naphthamide], the IC50 is < 0.1 µM.

With `CCNCC[C@@H](C)NC(=O)c1ccc2c(Oc3ccc(C(F)(F)F)cc3)cccc2c1` [Compound 146, (R)-N-(4-(ethylamino)butan-2-yl)-5-(4-(trifluoromethyl)phenoxy)-2-naphthamide], the IC50 is < 0.1 µM.

As for `C[C@H](CCNCCO)NC(=O)c1ccc2c(Oc3ccc(C(F)(F)F)cc3)cccc2c1` [Compound 147, (R)-N-(4-((2-hydroxyethyl)amino)butan-2-yl)-5-(4-(trifluoromethyl)phenoxy)-2-naphthamide], the IC50 was < 0.1 µM.

For the compound `C[C@H](CCNCCF)NC(=O)c1ccc2c(Oc3ccc(C(F)(F)F)cc3)cccc2c1` [Compound 148, (R)-N-(4-((2-fluoroethyl)amino)butan-2-yl)-5-(4-(trifluoromethyl)phenoxy)-2-naphthamide], the IC50 was < 0.1 µM.

`C[C@H](CCNCC(F)F)NC(=O)c1ccc2c(Oc3ccc(C(F)(F)F)cc3)cccc2c1` [Compound 149, (R)-N-(4-((2,2-difluoroethyl)amino)butan-2-yl)-5-(4-(trifluoromethyl)phenoxy)-2-naphthamide]: the IC50 was < 0.1 µM.

Turning to `C[C@@H](NC(=O)c1ccc2c(Oc3ccc(C(F)(F)F)cc3)cccc2c1)C1CCNCC1` [Compound 150, (R)-N-(1-(piperidin-4-yl)ethyl)-5-(4-(trifluoromethyl)phenoxy)-2-naphthamide], the IC50 is < 0.1 µM.

With `C[C@H](NC(=O)c1ccc2c(Oc3ccc(C(F)(F)F)cc3)cccc2c1)C1(F)CNC1` [Compound 151, (S)-N-(1-(3-fluoroazetidin-3-yl)ethyl)-5-(4-(trifluoromethyl)phenoxy)-2-naphthamide], the IC50 fell in the range of 1 to 3 µM.

Regarding `C[C@@H](NC(=O)c1ccc2c(Oc3ccc(C(F)(F)F)cc3)cccc2c1)C1(F)CNC1` [Compound 152, (R)-N-(1-(3-fluoroazetidin-3-yl)ethyl)-5-(4-(trifluoromethyl)phenoxy)-2-naphthamide], the IC50 lay in the range of 0.1 to 1 µM.

For the compound `C[C@@H](NC(=O)c1ccc2c(Oc3ccc(C(F)(F)F)cc3)cccc2c1)C1CCN(CCO)CC1` [Compound 153, (R)-N-(1-(1-(2-hydroxyethyl)piperidin-4-yl)ethyl)-5-(4-(trifluoromethyl)phenoxy)-2-naphthamide], the IC50 was 0.1 to 1 µM.

Regarding `C[C@@H](NC(=O)c1ccc2c(Oc3ccc(C(F)(F)F)cc3)cccc2c1)C1CCN(CCF)CC1` [Compound 154, (R)-N-(1-(1-(2-fluoroethyl)piperidin-4-yl)ethyl)-5-(4-(trifluoromethyl)phenoxy)-2-naphthamide], the IC50 was in the range of 0.1 to 1 µM.

The record behind these values is patent publication US11420935B2, “Bicyclic compounds” (Vivace Therapeutics, Inc., priority 2019, dated 2022).
